“And” between values parts separate entries of the source, which are not always exact repeats. Equal values may be shown once.
Assays:
MDCK-II cells [1] = test: Parallel residual cytotoxicity test without virus on MDCK-II assay cells (Example 6); format: cell-based, canine; conditions: after filtration, no virus, 1% LTX-7 or 0.2% Triton X-100
Method: (§1) Appropriate controls were also performed.

[2] = test system: Influenza A strain A/WSN/33 (H1N1); format: cell-based, Influenza A virus
Vero cells = test: Parallel residual cytotoxicity test without virus on Vero assay cells (Example 5); format: cell-based, African green monkey; conditions: after filtration, no virus, 1% LTX-12 or 0.2% Triton
Method: as §1

[3] = test system: SARS-CoV-2 isolate England/02/2020; format: cell-based; conditions: SARS-CoV-2, contact time 1 h at RT; 1% LTX-12 (w/v) in PBS or 0.2% Triton in PBS; Vero cells
SARS-CoV-2 = format: cell-based
[4] = test system: Respiratory Syncytial Virus (RSV); test: TCID50 virucidal assay, LTX-109 against RSV on Hep2 cells; format: cell-based; conditions: for TCID50/ml ± SEM (average virus titre recovered): 1 h incubation, Hep2 cells
Method: The experiment was performed in triplicates.
as §1

[5] = test system: Lenti virus-like particle expressing VSV-G
Hep2 cells = conditions: 0.1% LTX-109, after filtration, no virus
Method: After 1 hour, the incubation was stopped by adding an excess of cold media, and the formulation was physically separated from the virus through a filter to reduce cytotoxicity on the assay cells. […] Infectious virus was quantified through a serial dilution (a series of ten-fold dilutions) on monolayers of Hep2 cells in microtitre plates (Hep2 cells are mammalian cells capable of displaying a cytopathic effect (CPE) upon viral infection). The starting solution for the serial dilution (i.e. the neat (or undiluted) solution) was obtained by re-suspending the virus that was separated via the filtration step in 1 ml of media. For each dilution of the virus in the dilution series, eight wells of the microtitre plate were tested (i.e. each dilution of virus was applied to eight separate wells, each well containing a Hep2 cell monolayer). Appropriate controls were also performed. […] The TCID50 (TCID50/ml) assay (Tissue Culture Infectious Dose 50 assay) is a type of endpoint dilution assay that is well known in the art and routinely used to quantitatively measure virus titres. TCID50/ml provides a measure of infectious units of virus/ml. “/ml” refers to/ml of the starting solution (i.e. neat/undiluted solution) mentioned above. […]

[6] = test system: Influenza A virus (IAV, A/WSN/33); format: cell-based
MDCK-II cells [7] = test: Parallel residual cytotoxicity test without virus on MDCK-II assay cells (Example 2); format: cell-based, canine; conditions: 1% LTX-109, after filtration, no virus
Method: as §1

N=C(N)NCCCC(N)C(=O)NC(Cc1ccc(-c2ccc3ccccc3c2)cc1)C(=O)NC(CCCNC(=N)N)C(=O)NCCc1ccccc1 (centres unmarked) [LTX-7, Arg-Phe(4-(2-Naphthyl))-Arg-NH—CH2—CH2-Ph]
Cytotoxicity on assay cells (dilution at which seen) (MDCK-II cells [1]): neat
Rounded % (reduction) ([2]; contact time 1 h, 1% LTX-7 or 0.2% Triton X-100): 99.99%
TCID50/ml ± SEM (average virus titre recovered) ([2]; contact time 1 h at RT, 1% LTX-7 (w/v) in PBS or 0.2% Triton X-100 in PBS, MDCK-II cells): 1.58E+01 TCID50/ml and 1.58E+01 ± 0.00E+00 TCID50/ml

CC(C)(C)c1cc(C(C)(C)C)c2[nH]c(C(C)(C)C)c(CC(NC(=O)C(N)CCCCN)C(=O)NC(CCCCN)C(=O)NCCc3ccccc3)c2c1 (stereo not drawn) [LTX-12, Lys-Tbt-Lys-NH—CH2—CH2-Ph]
Cytotoxicity on assay cells (Vero cells): no significant cytotoxicity
TCID50/ml ± SEM (average virus titre recovered) [3]: 1.58E+02 TCID50/ml and 1.58E+02 ± 0.00E+00 TCID50/ml

CC(C)(C)c1cc(C(C)(C)C)c2[nH]c(C(C)(C)C)c(CC(NC(=O)C(N)CCCNC(=N)N)C(=O)NC(CCCNC(=N)N)C(=O)NCCc3ccccc3)c2c1 (centres unmarked) [LTX-109]
TCID50/ml ± SEM (average virus titre recovered) (SARS-CoV-2; SARS-CoV-2, 1% LTX-109 (w/v) in PBS, 1 h incubation, Vero cells): 1.99E+02 TCID50/ml and 1.99E+02 ± 4.11E+01 TCID50/ml
Log (virus titre) (SARS-CoV-2; SARS-CoV-2, 1% LTX-109, 1 h): 2.28 Log
Percentage (decrease in infectivity vs PBS control) (SARS-CoV-2; SARS-CoV-2, 1% LTX-109, 1 h): 99.99% and 99.995%
TCID50/ml ± SEM (average virus titre recovered) ([4]; 0.1% LTX-109 (w/v) in PBS): 8.76E+01 TCID50/ml and 8.76E+01 ± 4.11E+01 TCID50/ml
Log (virus titre) ([4]; 0.1% LTX-109, 1 h): 1.78 Log
Percentage (decrease in infectivity vs PBS control) ([4]; 0.1% LTX-109, 1 h): 99.9% and 99.97%
TCID50/ml ± SEM (average virus titre recovered) ([4]; 1% LTX-109 (w/v) in PBS): 1.58E+02 TCID50/ml and 1.58E+02 ± 0.00E+00 TCID50/ml
Log (virus titre) ([4]; 1% LTX-109, 1 h): 2.20 Log
Percentage (decrease in infectivity vs PBS control) ([4]; 1% LTX-109, 1 h): 99.9% and 99.949%
Effect on envelope of Lenti-virus-like particles (electron microscopy) [5]: disrupted (or dissolved) envelope
With Filtration: cytotoxicity on assay cells (Hep2 cells): No cytotoxicity
TCID50/ml ± SEM (average virus titre recovered) ([6]; 1% LTX-109 (w/v) in PBS, 1 h incubation, MDCK-II cells): 1.58E+01 TCID50/ml and 1.58E+01 ± 0.00E+00 TCID50/ml
Log (virus titre) ([6]; 1% LTX-109, 1 h): 1.20 Log
Percentage (decrease in infectivity vs PBS control) ([6]; 1% LTX-109, 1 h): 99.9% and 99.969%
With Filtration: cytotoxicity on assay cells (dilution up to which seen) (MDCK-II cells [7]): only up to the first dilution

Source: US20240156893A1 (priority 2021, published 2024)
